Data as given in patent US20070105835A1, “Compositions and methods for modulating poly(ADP-ribose) polymerase activity” (priority 2005, published 2007).
“Also recorded” adds a separate entry of the source. Read-outs that look alike come from different tables or passages of the source. One block for each compound: values may come before it.

Legend:
[1] = molecular target: recombinant PARP-1 (Homo sapiens, UniProt P09874); experiment: in vitro PARP-1 enzyme inhibition assay; type: biochemical
Experimental: FIGS. 2A-2F. FIG. 2A is a bar graph showing ATP levels in PC12 cells treated with the oxidant (Oxd.), hydrogen peroxide, in the absence (white) and in the presence (gray) of the PARP-1 inhibitor (ANI). FIG. 2B is a graph showing relative ATP levels in PC12 cells treated with hydrogen peroxide in the absence (solid line) and in the presence (dashed line) of 5 μM PARP-1 inhibitor ANI. FIG. 2C is a bar graph showing ATP levels in PC12 cells either untreated (U) or treated (T) with 200 μM oxidant and supplemented with the compounds indicated at the concentrations indicated. […] The IC50 of each inhibitor, determined by in vitro assay, is also shown. […] FIG. 2E is a bar graph showing the effect of different compounds on recombinant PARP-1 activity in vitro. PARP-1 enzymatic activities were determined in the absence (white) or presence (gray) of the testing compounds. […] FIG. 2F is a graph showing the calculated IC50 of inhibitor K245.
(See, e.g., Jagtap and Szabo, Nat Rev Drug Discov. 4:421-440, 2005; Ha and Snyder, Proc Natl Acad Sci USA. 96: 13978-13982, 1999; and Ying et al., Proc Natl Acad Sci USA 98:12227-12232, 2001). To test the effect of the compounds on PARP1 activity, an in vitro PARP-1 assay was used.
Identification of structural analogs. […] PARP-1 activity in the presence of decreasing concentrations of three different inhibitors is shown in the graph in FIG. 6.

[2] = system: lymphoblasts derived from HD patients and normal controls; experiment: ATP levels in oxidant-treated normal and HD lymphoblasts; type: cell-based, human; conditions: for rescue of loss of ATP: HD and wild type lymphoblasts, oxidant-treated; for EC50: Homo sapiens, read-out: oxidant concentration for 50% loss of ATP
Experimental: (§1) FIGS. 3A-3F. FIG. 3A is a bar graph showing the effect of the PARP-1 inhibitor ANI on ATP levels in one normal (white) and two mutant HD (black) lymphoid cell lines treated with the oxidant (Oxd.) hydrogen peroxide. Lymphoblasts treated (T) with 200 μM oxidant were supplemented with mock inhibitor (DMSO) or with 5 μM PARP-1 inhibitor ANI. FIG. 3B is a bar graph showing the effect of the novel PARP-1 inhibitor K245 on ATP levels in oxidant (Oxd.) treated normal (white) and mutant HD (black) lymphoid cell lines. Hydrogen peroxide was the oxidant. Lymphoblasts treated (T) with 200 μM oxidant were supplemented with mock inhibitor (DMSO) or with 1, 5 or 10 μM PARP-1 inhibitor K245. FIG. 3C is a bar graph showing the effects of various compounds on relative ATP levels in wildtype (white) and mutant HD (black) striatal cells treated with 400 μM hydrogen peroxide. Basal ATP levels in cells untreated with oxidant were 100%. Oxidant-treated cells were supplemented with mock (DMSO) or PARP-1 inhibitors ANI and K245 at concentrations 0.1 μM, 1 μM, and 5 μM; and 1 μM, 5 μM, and 10 μM, respectively. […] FIG. 3D is a bar graph showing the effects of PARP-1 inhibitors ANI and K245 on basal ATP levels in normal (white) and mutant HD (black) lymphoblasts. Cells were supplemented with 5 μM ANI and 10 μM K245. Basal ATP levels in cells supplemented with mock (DMSO) were 100%. Cells were not treated with oxidant. FIG. 3E is a bar graph showing the effects of PARP-1 inhibitors on ATP levels in untreated striatal cells and in striatal cells treated with the mitochondrial blocker 3-NP. Wildtype cells are indicated by white bars and mutant HD cells are indicated by black bars. Untreated wildtype and mutant HD cells were supplemented with 5 μM ANI or 10 μM K245. Basal ATP levels in cells supplemented with mock (DMSO) were 100%. Cells treated with 5 μM 3-NP were supplemented with mock (DMSO), 1 or 5 μM ANI, or 1 μM, 5 μM, or 10 μM K245. FIG. 3F is a bar graph showing PARP-1 activity levels in untreated wildtype (7Q) and mutant HD (111Q) striatal cells, and in normal (30Q) and mutant HD (63Q) lymphoblasts.

[3] = system: PC12 cell-line expressing fragments of mutant Htt protein; experiment: oxidant (hydrogen peroxide)-mediated ATP loss and cell death in PC12 cells expressing mutant Htt fragments; type: cell-based
Experimental: To investigate the impact of oxidative stress on HD cells we measured ATP levels in lymphoblasts derived from HD patients and normal controls. ATP levels were measured using a commercially available-luciferase substrate. The luciferase enzyme uses ATP as a cofactor to produce one photon of light per substrate molecule (e.g., luciferin). The detectable output is luminescence. There is a linear relationship between the amount of signal output and the amount of ATP present in the sample. Thus, the amount of ATP present in a sample can be directly correlated with the measured output.
To investigate the basis for the hypersensitivity of mutant cells to oxidative stress, we employed a chemical biological approach and screened for small molecules capable of preventing an unsustainable loss of ATP in HD mutant cells. We developed an assay to measure oxidative stress-dependent ATP loss and subsequent cell-death. […] In addition, amino groups of each of CGI and K245-14 were predicted to form hydrogen bonds with Ser243 and Gly202 of PARP1.
To confirm that inhibition of PARP-1 activity could protect cells from ATP depletion, we tested two known enzyme inhibitors in PC12 cells challenged with oxidative stress. The PC12 cell line expressed fragments of mutant Htt protein as described above. […] Maintenance of ATP levels rescued by the PARP-1 inhibitors was dependent on the severity of cellular oxidation (FIG. 2A).

[4] = system: striatal cells derived from Huntingtin double knock-in mutant and wildtype transgenic mice; experiment: ATP levels in oxidant-treated wildtype and mutant HD striatal cells; type: cell-based, mouse; conditions: for rescue of loss of ATP: mutant and wild type striatal cells, oxidant-treated; for EC50: read-out: oxidant concentration for 50% loss of ATP; for loss of ATP from basal ATP levels: 500 μM oxidant
Experimental: as §1

[5] = system: α-synuclein toxicity; experiment: Parkinson's Disease alpha-synuclein toxicity assay; type: cell-based
Text: Alpha-synuclein toxicity assays can also be used to identify compounds that positively impact cell survival and/or function. […] As noted, Parkinson's Disease is among the indications for the present compositions.

[6] = Table 3, in vitro enzyme inhibition, read-out: IC50
[7] = text and figure legend, read-out: IC50 for PARP-1 inhibition in vitro

Chain of recombinant PARP-1 (P09874 whole entry): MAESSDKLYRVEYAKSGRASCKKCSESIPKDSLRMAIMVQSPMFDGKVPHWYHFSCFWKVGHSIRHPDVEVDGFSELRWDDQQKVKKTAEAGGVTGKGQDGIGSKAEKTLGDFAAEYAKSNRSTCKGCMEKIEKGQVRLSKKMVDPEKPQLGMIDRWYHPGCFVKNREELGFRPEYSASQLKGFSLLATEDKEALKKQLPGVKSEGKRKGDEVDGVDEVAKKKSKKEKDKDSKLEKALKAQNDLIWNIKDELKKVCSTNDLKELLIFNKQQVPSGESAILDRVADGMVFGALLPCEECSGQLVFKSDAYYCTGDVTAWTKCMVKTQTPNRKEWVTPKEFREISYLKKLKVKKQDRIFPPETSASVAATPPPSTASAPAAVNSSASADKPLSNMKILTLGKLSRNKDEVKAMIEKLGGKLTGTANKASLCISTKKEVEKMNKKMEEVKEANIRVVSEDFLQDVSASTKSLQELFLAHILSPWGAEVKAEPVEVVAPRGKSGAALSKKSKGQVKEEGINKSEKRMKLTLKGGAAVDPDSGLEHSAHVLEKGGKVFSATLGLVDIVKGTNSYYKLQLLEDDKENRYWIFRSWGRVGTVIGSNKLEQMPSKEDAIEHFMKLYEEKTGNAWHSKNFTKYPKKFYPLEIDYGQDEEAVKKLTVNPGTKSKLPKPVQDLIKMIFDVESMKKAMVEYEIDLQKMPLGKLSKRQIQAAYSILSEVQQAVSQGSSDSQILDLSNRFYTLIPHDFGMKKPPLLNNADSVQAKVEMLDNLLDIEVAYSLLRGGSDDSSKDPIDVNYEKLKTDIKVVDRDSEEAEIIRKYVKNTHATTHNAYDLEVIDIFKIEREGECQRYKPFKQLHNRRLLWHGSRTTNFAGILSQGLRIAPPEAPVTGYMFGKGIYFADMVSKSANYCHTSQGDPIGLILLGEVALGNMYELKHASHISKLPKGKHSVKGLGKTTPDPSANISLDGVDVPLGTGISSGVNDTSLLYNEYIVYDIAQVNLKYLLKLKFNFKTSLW

IC50 [1, 6]: 0.15 µM
Structure (SMILES): O=C1Nc2cc(C(=O)N3CCN(c4ccc(Cl)cc4)CC3)ccc2Nc2ccccc21 [K245-88]

IC50 [1, 6]: 0.55 µM
Structure (SMILES): O=C1Nc2cc(C(=O)N3CCN(c4ccccc4F)CC3)ccc2Nc2ccccc21 [K245-89]

IC50 [1, 6]: 2 µM
Structure (SMILES): COC(CNC(=O)c1ccc2c(c1)NC(=O)c1ccccc1N2)OC [K245-95]

Structure (SMILES): Nc1ccc2c3c(cccc13)C(=O)NC2=O [4-ANI]
rescue of loss of ATP [2]: rescued loss of ATP
rescue of oxidant-mediated ATP loss and cell death [3]: protected high levels of cellular ATP
rescue of loss of ATP [4]: rescued loss of ATP

IC50 [1, 6]: 2.2 µM
Structure (SMILES): O=C1Nc2cc(C(=O)N3CCN(Cc4ccccc4)CC3)ccc2Nc2ccccc21 [K245-42]

Structure (SMILES): CCN1C(=O)c2cccc3c(N)ccc1c23 [CG3, reference compound]
PARP-1 inhibition ([1]; result in words): did not show any PARP-1 inhibition activity; also recorded: failed to inhibit PARP-1 activity
rescue of oxidant-mediated ATP loss and cell death [3]: did not protect cells from oxidative stress

EC50 ([4]; Mus musculus, mutant HD striatal cells): 410 µM
EC50 ([4]; Mus musculus, wildtype striatal cells): 550 µM
EC50 ([4]; mutant HD striatal cells): 420 µM
Structure (SMILES): OO [hydrogen peroxide]
EC50 ([2]; mutant HD lymphoblasts): 60 µM
EC50 ([2]; normal lymphoblasts): 120 µM
loss of ATP from basal ATP levels ([4]; mutant striatal cells): 80%
loss of ATP from basal ATP levels ([4]; wildtype striatal cells): 20%

IC50 [1, 7]: 2.5 µM
Structure (SMILES): Nc1ccc2c3c(cccc13)C(=O)N2 [CG1]
rescue of oxidant-mediated ATP loss and cell death [3]: rescued oxidant-mediated ATP loss and cell death

IC50 [1, 7]: 2 µM
Structure (SMILES): CCN(CC)CCNC(=O)c1ccc2c(c1)NC(=O)c1ccccc1N2 [K245-14]
protective effect in α-synuclein toxicity assay [5]: small but reproducible protective effects
rescue of loss of ATP [2]: rescued loss of ATP
rescue of oxidant-mediated ATP loss and cell death [3]: rescued oxidant-mediated ATP loss and cell death
rescue of loss of ATP [4]: rescued loss of ATP

IC50 [1, 6]: 3.5 µM
Structure (SMILES): O=C1Nc2cc(C(=O)N3CCCC3)ccc2Nc2ccccc21 [K245-80]

IC50 [1, 6]: 4 µM
Structure (SMILES): CCN(CCCNC(=O)c1ccc2c(c1)NC(=O)c1ccccc1N2)c1cccc(C)c1 [K245-99]

IC50 [1, 6]: 5.5 µM
Structure (SMILES): COc1ccc(N2CCN(C(=O)c3ccc4c(c3)NC(=O)c3ccccc3N4)CC2)cc1 [K245-39A]
